Measured values reported in patent US20240288345A1, “FLUORESCENT STAINING METHOD” (OSAKA UNIVERSITY, priority 2022, published 2024).

Experiments:
human colonic polyp = assay: 3D imaging of human colonic polyp with light-sheet microscope (Test Example G); conditions: with propidium iodide counterstain
Description: (§1) A formaldehyde-fixed tissue specimen was washed with PBS, and was subsequently immersed in a 50% (v/v) CUBIC-L reagent (mixture containing water and the CUBIC-L reagent at 1:1) overnight. Further, the specimen was immersed in the CUBIC-L reagent at 37° C. for 5 days or 6 days while being gently shaken. Next, each of those specimens was washed with PBS, was immersed in 30% (w/v) of sucrose in the PBS, and was frozen in O.C.T. COMPOUND at −80° C. overnight. Next, the frozen specimen was thawed, was washed with PBS, and was immersed in a 0.5% solution of periodic acid (HIO;) (86171, MUTO PURE CHEMICALS CO., LTD.) at room temperature for 30 minutes. […] A cleared tissue specimen thus obtained was subjected to 3D imaging with a confocal fluorescence microscope or a light-sheet fluorescence microscope. A wavelength of 488 nm was applied as the excitation wavelength of each of FAM hydrazide, Compound 1, Alexa Fluor 488 hydrazide, BDP FL hydrazide, and fluorescein, and the fluorescence detection wavelength range of each of these materials was from 490 nm to 562 nm. […]

[1] = system: colonic tissue analyte, crypt structure and neutrophils; assay: 3D imaging of ulcerative colitis histopathological analyte (Test Example D); design: species or system human; conditions: cleared, whole-mount 3D staining
Description: as §1

[2] = system: neutrophil in colonic tissue analyte; assay: Whole-mount 3D staining of ulcerative colitis colonic tissue analyte (Test Example C); design: species or system human; conditions: cleared
Description: as §1

[3] = system: human colonic mucosal tissue; assay: Clearing and whole-mount 3D fluorescent staining of human colonic mucosal tissue (Test Example B)
Description: CUBIC-L and CUBIC-R+reagents (T3740 and T3741, Tokyo Chemical Industry Co., Ltd.) were used in tissue clearing. Atissue removal procedure is simply described below.
A formaldehyde-fixed tissue specimen was washed with PBS, and was subsequently immersed in a 50% (v/v) CUBIC-L reagent (mixture containing water and the CUBIC-L reagent at 1:1) overnight. Further, the specimen was immersed in the CUBIC-L reagent at 37° C. for 5 days or 6 days while being gently shaken. Next, each of those specimens was washed with PBS, was immersed in 30% (w/v) of sucrose in the PBS, and was frozen in O.C.T. COMPOUND at −80° C. overnight. […] After having been washed with PBS, the specimen was stained by being gently shaken at room temperature for 2 days or 3 days together with FAM hydrazide, 5-isomer (50 μM), Compound 1 (50 μM), Alexa Fluor 488 hydrazide (50 µM), BDP FL hydrazide ([…]), or fluorescein (50 µM) in PBS containing 0.5% (v/v) of Triton X-100 (12967, Nacalai Tesque, Inc.). When nuclear counterstaining was performed, propidium iodide (PI) (10 μg/mb, P21493, Life Technologies Corporation) or RedDot-2 (1:100, 40061-T, Biotium, Inc.) was also added to the staining solution. After the staining step, the specimen was washed with PBS, and was immersed in a 50% (v/v) CUBIC-R+reagent (mixture containing water and the CUBIC-R+reagent at 1:1) overnight. Further, the specimen was immersed in the CUBIC-R+reagent for 1 day or 2 days while being gently shaken. A cleared tissue specimen thus obtained was subjected to 3D imaging with a confocal fluorescence microscope or a light-sheet fluorescence microscope. A wavelength of 488 nm was applied as the excitation wavelength of each of FAM hydrazide, Compound 1, Alexa Fluor 488 hydrazide, BDP FL hydrazide, and fluorescein, and the fluorescence detection wavelength range of each of these materials was from 490 nm to 562 nm.
A 3D image was obtained by using a confocal microscope (Zeiss LSM880 Confocal/Multiphoton, Carl Zeiss AG) or a light-sheet fluorescence microscope (Zeiss Lightsheet 7, Carl Zeiss AG), All pieces of raw image data were reconstructed and analyzed with Imaris software (version 9.2.1, Bitplane Inc.).
A human colonic mucosal tissue after its formalin fixation, which had been excised into a square about 4 mm on a side, was subjected to clearing treatment and to whole-mount 3D tissue staining through use of FAM hydrazide, Alexa Fluor 488 hydrazide, BDP FL hydrazide, or fluorescein as a stain.

[4] = system: fungal hyphae in a pulmonary aspergillosis tissue; assay: 3D imaging of fungal hyphae (Test Example H); conditions: with RedDot 2 counterstain, confocal microscope
Description: as §1

[5] = system: goblet cell mucus of human colorectal mucosal tissue; assay: Fluorescent staining of frozen sliced specimen of human colonic mucosa (Test Example A)
Description: A tissue to be stained was washed with phosphate buffered saline (PBS), was immersed in 30% (w/v) of sucrose in the PBS, and was frozen in O.C.T. COMPOUND (45833, Sakura Finetek) at −80° ° C. overnight. The frozen tissue was cut into a thickness of 10 μm with a cryostat (CM3050 S, Leica Biosystems). The resultant frozen section was washed with PBS three times, and was subjected to pretreatment with a 0.5% solution of periodic acid (HIOA) (86171, MUTO PURE CHEMICALS CO., LTD.) at room temperature for 30 minutes. The section was washed with PBS three times, and was incubated in FAM hydrazide, 5-isomer((50 µM, 24170, BroadPharm, in this description, sometimes referred to as “FAM hydrazide”), Alexa Fluor 488 hydrazide (50 μM, A10436, ThermoFisher Scientific, Inc.), BDP FL hydrazide (50 μM, 11470, Lumiprobe Corporation), or fluorescein (50 µM, FUJIFILM Wako Pure Chemical Corporation) diluted with PBS at room temperature overnight. After that, the section was washed with PBS and an image thereof was obtained with a confocal microscope.
A section of a human colorectal mucosal tissue sampled from the non-tumor region of a surgical specimen of colorectal cancer was subjected to fluorescent staining through use of FAM hydrazide, Alexa Fluor 488 hydrazide, BDP FL hydrazide, or fluorescein serving as a fluorescent skeleton as a stain.

SMILES: NNC(=O)c1ccc2c(c1)C(=O)OC21c2ccc(O)cc2Oc2cc(O)ccc21 [FAM hydrazide, FAM hydrazide, 5-isomer]
- Observation of surface layer structure of human colonic polyp (human colonic polyp): able to be observed
- Three-dimensional observation of pathological crypt structure of ulcerative colitis [1]: enabled the three-dimensional observation
- Stained image of neutrophil in 3D imaging [2]: clear stained image
- 3D imaging signal of cleared tissue ([3]; CUBIC clearing, periodic acid, 50 μM, 2-3 days, excitation 488 nm): clear stereoscopic image
- Staining of goblet cell and basement membrane in crypt of colonic mucosa ([3]; cleared tissue, 3D staining): clearly stained
- Staining of neutrophil in 3D tissue staining ([3]; cleared tissue, confirmed with anti-MPO antibody): clearly stained
- 3D staining signal without oxidation treatment with HIO4 ([3]; no HIO4 oxidation, CUBIC reagent): no positive signal was observed
- Staining property for a sample having a thickness after clearing treatment ([3]; summary of Examples and Test Examples): significantly excellent
- Visualization of structures of fungal hyphae [4]: clearly visualized
- Fluorescent staining signal in goblet cell mucus, sliced section ([5]; 10 μm frozen section, 0.5% periodic acid pretreatment, 50 μM overnight): clear positive image
- Fluorescent staining signal without oxidation treatment with HIO4, sliced section ([5]; no HIO4 oxidation): not obtained
